From patent US12653860B2, “Compositions and methods for editing beta-globin for treatment of hemaglobinopathies” (Vertex Pharmaceuticals Incorporated, priority 2019, dated 2026)

What was measured:
cKit mice = experiment: Lineage analysis of engrafted human CD45-expressing cells in mouse bone marrow; assay type: in vivo
Description: Presence of human hematopoietic cells was measured by flow cytometry in mouse blood or bone marrow samples. Cells were gated on singlet, live cells. Mouse and human CD45-expressing hematopoietic cells were distinguished by antibodies targeting mouse or human CD45. Engraftment was measured as percent chimerism which was defined as the quantity of human CD45 positive cells divided by the total number of CD45 positive cells (e.g., human and mouse CD45 expressing cells combined). The lineage of human CD45 positive cells was determined using markers for CD19 (e.g., B cells), CD3 (e.g., T cells), CD33 (e.g., myeloid cells), and CD34 (hematopoietic stem/progenitor cells (HSPCs)).
Shown in FIGS. 18A-18B is lineage analysis of engrafted CD45-expressing human cells in mouse bone marrow samples collected at 16 weeks post administration of LT-HSPCs. The lineage of CD45-expressing human leukocytes was evaluated for unedited LT-HSPCs administered at a dose of 0.01×10^6, 0.05×10^6, 0.1×10^6, or 0.25×10^6 cells (FIG. 18A). The lineage of CD45-expressing human leukocytes was also evaluated for LT-HSPCs edited with AAV+RNP either in the presence or absence of i53 (FIG. 18B).
Shown in FIG. 25 is lineage analysis of engrafted CD45-expressing human cells in mouse bone marrow samples collected at 16 weeks post administration of LT-HSPCs. […]

HBB locus [1] = experiment: HDR (E7V) editing in mouse bone marrow 16 weeks post-administration, NGS; assay type: in vivo, mice; settings: for levels of gene-editing in the HBB locus in bone marrow: AAV.304, FIG. 26B
Description: Maintenance of gene-editing was evaluated in mouse bone marrow collected at 16 weeks post-administration of LT-HSPCs. Incorporation of a sickle mutation (E7V) in the HBB locus was evaluated in DNA isolated from mouse bone marrow samples using the next generation sequencing assay described in Example 4. Shown in FIG. 19 is a comparison of HDR efficiency for LT-HSPCs edited either with or without i53. LT-HSPCs were electroporated with Cas9/gRNA and treated with AAV. […] LT-HSPCs edited in the presence of i53 had 1.8-fold higher HDR frequency in the bone marrow compared to cells edited with AAV+RNP alone.
Maintenance of gene-editing was evaluated in mouse bone marrow collected at 16 weeks post-administration of LT-HSPCs. Incorporation of a sickle mutation (E7V) in the HBB locus was evaluated in DNA isolated from mouse bone marrow samples using the next generation sequencing assay described in Example 4. […] LT-HSPCs were electroporated with Cas9/gRNA and treated with AAV prior to electroporation or following electroporation. Incorporation of the gene-edit in bone marrow samples was similar for LT-HSPCs edited with RNP and AAV given either pre-EP or post-EP. Additionally, incorporation of the gene edit in the HBB locus by HDR was compared for LT-HSPCs edited in the presence of i53 or Nu7441 (FIG. 26B).

[2] = system: HBB gene in CD34-expressing LT-HSPCs derived from human patients with sickle cell disease; experiment: Correction of sickle mutation (E6V to E6) by HDR in SCD patient-derived LT-HSPCs, NGS; assay type: cell-based; set-up: dose or concentration left out as unconfirmed; settings: R02 RNP+AAV.323 + i53 mRNA; FIG. 30A, 32B
Description: The AAV-encoded homology donor used for correction is referred to as “AAV.323” and is identified by sequence in Table 8.

[3] = system: HBB locus in CD34-expressing LT-HSPCs; experiment: Indel formation at HBB locus in vitro by TIDE analysis; assay type: cell-based, human; settings: FIG. 11
Description: The cells were electroporated with 1 g mRNA encoding i53.
Editing efficiency at the HBB locus was evaluated by measuring indel formation by TIDE analysis. […] This group had 1.7-fold reduction in INDEL frequency relative to cells treated with RNP+AAV,

[4] = system: CD34-expressing LT-HSPCs from a human donor with sickle cell disease; experiment: Hemoglobin expression (HbS, HbA) by HPLC in edited differentiated patient LT-HSPCs; assay type: cell-based; settings: FIG. 32B
Description: Hemoglobin expressed by edited cells that were differentiated to erythrocytes was assessed. Hemoglobin A (HbA) is composed of 2 alpha-globin and 2 beta-globin units and is the dominant hemoglobin in adult humans. In human carriers of the HBB E6V mutation, a high proportion of total hemoglobin is hemoglobin S (HbS), which is composed of 2 alpha-globin units and 2 beta-globin units with E6V.
Briefly, on day 18 post-editing, 1×10^6 cells were harvested, centrifuged, and washed with PBS. The cells were prepared for HPLC analysis. Hemoglobin variants were quantified in cell samples using reverse-phase HPLC chromatography and gradient elution. […] Thus, high levels of HDR achieved with i53 contribute to normalization of hemoglobin expression products.

HBB locus [5] = experiment: Indel formation in mouse bone marrow 16 weeks post engraftment, TIDE; assay type: in vivo, mice
Description: (§1) NHEJ editing of the HBB locus was also evaluated in mouse bone marrow collected at 16 weeks post engraftment. Indel formation at the site of Cas9/gRNA cutting was evaluated by TIDE analysis in bone marrow samples and compared to indel formation of LT-HSPCs prior to administration.
as §1, with “administration. Regardless of the method used to edit the LT-HSPCs, indel formation was similar at 16 weeks post-engraftment to the level present prior to administration (FIG. 27).” for “administration.”

[6] = system: HBB gene locus in CD34-expressing LT-HSPCs; experiment: INDEL frequency and species at R02 cut site with DNA-PK inhibitors, NGS; assay type: cell-based, human; settings: 1 μg i53 mRNA; R02 RNP+AAV.307
Description: Editing was performed as described above. However, the cells were electroporated with AAV.307 administered 1 hour prior to electroporation at a dose of 10,000 MOI. The cells were electroporated with compound 296 at a concentration ranging from 0.005 μM to 10 μM, with compound 984 at a concentration ranging from 0.005 μM to […], or with 1 μg i53 mRNA. Negative control cells were electroporated with RNP+AAV only or RNP only.
Edited cells were evaluated for viability as described above, and for incorporation of gene-edits at 2 days post-electroporation. […] The frequency of INDELs induced at the R02 cut site was also evaluated by NGS analysis.
The INDELs species identified for cells edited in Experiment 2 were further evaluated to determine frequency of repair by NHEJ or MMEJ repair pathways. An INDEL of 1 nt was considered due to NHEJ repair; a deletion of −9 nt was considered due to MMEJ repair based on the microhomology present on either side of the R02 cut site. Based on percentage of total reads corresponding to these INDEL species, the ratio of gene edits due to NHEJ and MMEJ repair was evaluated.

[7] = system: HBB gene in CD34-expressing LT-HSPCs derived from human patients with sickle cell disease; experiment: INDELs at R02 cut site in SCD patient-derived LT-HSPCs, NGS; assay type: cell-based; settings: FIG. 30B
Description: Editing of cells was performed following two days of in vitro culture. Briefly, 5×10^5 cells were electroporated with RNP containing 20 g SpCas9 and 20 μg R02 sgRNA, AAV.323 at a dose of 10,000 MOI, and 1 g mRNA encoding i53. The cells were incubated with AAV.323 for 1 hour prior to electroporation. The cells were edited by electroporation with R02+AAV.323+i53 mRNA and compared to control cells edited with R02 only, R02+AAV.323, or cells exposed to electroporation without RNP or AAV editing components (mock EP).
The efficiency of gene correction by HDR repair at the HBB gene locus was evaluated by NGS assay as described in Example 3. Frequency of INDELs at the R02 cut site was evaluated by NGS analysis. […] Additionally, HDR repair and INDEL formation were compared at day 0 and day 14 post-editing.

Compound	lineage of human leukocytes in bone marrow (cKit mice; 16 weeks, compared to treatment with i53, FIG. 25)	levels of gene-editing in the HBB locus in bone marrow (HBB locus [1])	lineage distribution of engrafted cells (cKit mice; bone marrow 16 weeks, edited vs un-edited LT-HSPCs, FIG. 18B)	incorporation of the E6V→E6 gene correction by HDR [2] [%]	level of indel formation [3]	HDR frequency in bone marrow, fold higher than AAV+RNP alone (HBB locus [1]; AAV.307, FIG. 19) [fold]	incorporation of the gene edit by HDR in bone marrow (HBB locus [1]; AAV.307, i53, FIG. 19) [%]	decrease in HbS levels relative to mock EP control cells [4] [%]	level of indel formation in bone marrow (HBB locus [5]; AAV.304, FIG. 27)	level of indel formation in bone marrow (HBB locus [5]; AAV.307, FIG. 20)	frequency of INDELs relative to control cells [6]	frequency of INDELs at the R02 cut site, fold lower than RNP+AAV.323 alone [7] [fold]
O=c1cc(N2CCOCC2)oc2c(-c3cccc4c3sc3ccccc34)cccc12 [Nu7441]	greater proportion of CD34-expressing cells and myeloid cells	comparable to AAV+RNP alone										
i53: polypeptide inhibitor of 53BP1 (SEQ ID NO: 70), delivered as mRNA (ORF SEQ ID NO: 69)		substantially higher than AAV+RNP alone	no gross changes in lineage distribution	66	lowest level of indel formation	1.8	65	90	lowest	lowest	reduced frequency of INDELs	1.9
